From patent publication US10251394B2, “Molecules having pesticidal utility, and intermediates, compositions, and processes, related thereto” (Dow AgroSciences LLC, priority 2016, dated 2019)

What was measured:
[1] = tested on: Beet Armyworm (Spodoptera exigua); test: Bioassay on Beet Armyworm (BAW), 128-well diet tray assay; format: in vivo; conditions: for pest or weed control at 50 µg/cm2: Beet Armyworm, Table ABC, read-out: BAW rating
Experimental: (§1) Example A: Bioassays on Beet Armyworm (Spodoptera Exigua, LAPHEG) (“BAW”), Corn Earworm (Helicoverpa Zea, HELIZE) (“CEW”), and Cabbage Looper (Trichoplusia Ni, TRIPNI) (“CL”)
(§2) Certain molecules disclosed in this document were tested against BAW, CEW, and CL using procedures described in the following examples. In the reporting of the results, the “BAW, CEW, & CL Rating Table” was used (See Table Section).
Bioassays on BAW were conducted using a 128-well diet tray assay. One to five second instar BAW larvae were placed in each well (3 mL) of the diet tray that had been previously filled with 1 mL of artificial diet to which 50 μg/cm^2 of the test molecule (dissolved in 50 μL of 90:10 acetone-water mixture) had been applied (to each of eight wells) and then allowed to dry. Trays were covered with a clear self-adhesive cover and held at 25° C., 14:10 light-dark for five to seven days. Percent mortality was recorded for the larvae in each well; activity in the eight wells was then averaged. The results are indicated in the table entitled “Table ABC: Biological Results” (See Table Section).
(§3) Bioassays on BAW and CL were conducted according to the procedures outlined in Example A: Bioassays on Beet Armyworm (“BAW”) and Cabbage Looper (“CL”) using the indicated concentrations.

[2] = tested on: Cabbage Looper (Trichoplusia ni); test: Bioassay on Cabbage Looper (CL), 128-well diet tray assay; format: in vivo; conditions: for pest or weed control at 50 µg/cm2: Cabbage Looper, Table ABC, read-out: CL rating
Experimental: as §1, §2
Bioassays on CL were conducted using a 128-well diet tray assay. One to five second instar CL larvae were placed in each well (3 mL) of the diet tray that had been previously filled with 1 mL of artificial diet to which 50 μg/cm^2 of the test molecule (dissolved in 50 μL of 90:10 acetone-water mixture) had been applied (to each of eight wells) and then allowed to dry. Trays were covered with a clear self-adhesive cover and held at 25° C., 14:10 light-dark for five to seven days. Percent mortality was recorded for the larvae in each well; activity in the eight wells was then averaged. The results are indicated in the table entitled “Table ABC: Biological Results” (See Table Section).
as §3

SMILES | pest or weed control at 50 µg/cm2 [1] [%] | pest or weed control at 50 µg/cm2 [2] [%] | also measured
O=C(N[C@@H]1CON(CC(F)(F)F)C1=O)c1ccc(/C(F)=C/C(c2ccc(F)c(C(F)(F)F)c2)C(F)(F)F)cc1C(F)(F)F (stereo partly drawn) [F150, N—((R)-3-Oxo-2-(2,2,2-trifluoroethyl)isoxazolidin-4-yl)-4-((2)-1,4,4,4-tetrafluoro-3-(4-fluoro-3-(trifluoromethyl)phenyl)but-1-en-1-yl)-2-(trifluoromethyl)benzamide] | 50 to 100 | 50 to 100 | 
F/C(=C\C(c1cc(Cl)c(Cl)c(Cl)c1)C(F)(F)F)c1ccc(C(=S)NCC(=S)NCC(F)(F)F)c(C(F)(F)F)c1 (stereo not drawn) [PF88, (Z)-4-(1,4,4,4-tetrafluoro-3-(3,4,5-trichlorophenyl)but-1-en-1-yl)-N-(2-thioxo-2-((2,2,2-trifluoroethyl)amino)ethyl)-2-(trifluoromethyl)benzothioamide] | 50 to 100 | 50 to 100 | 
C=Cc1c(Cl)cc(C(/C=C(\F)c2ccc(C(=O)NC3(C(=O)N(C)CC(F)(F)F)CC3)c(C(F)(F)F)c2)C(F)(F)F)cc1Cl (stereo not drawn) [F111, (Z)-4-(3-(3,5-Dichloro-4-vinylphenyl)-1,4,4,4-tetrafluorobut-1-en-1-yl)-N-(1-(methyl(2,2,2-trifluoroethyl)carbamoyl)cyclopropyl)-2-(trifluoromethyl)benzamide] | 50 to 100 | 50 to 100 | 
Cc1cc(C(/C=C(\F)c2ccc(C(=O)N[C@H](C)C(=O)N(C)CC(F)(F)F)c(C(F)(F)F)c2)C(F)(F)F)ccc1Cl (stereo partly drawn) [PF49, 4-((Z)-3-(4-Chloro-3-methylphenyl)-1,4,4,4-tetrafluorobut-1-en-1-yl)-N—((R)-1-(methyl(2,2,2-trifluoroethyl)amino)-1-oxopropan-2-yl)-2-(trifluoromethyl)benzamide] | 50 to 100 | 50 to 100 | 
CC(NC(=O)CNC(=O)c1ccc(/C(F)=C/C(c2cc(Cl)c(Cl)c(Cl)c2)C(F)(F)F)cc1Cl)C(F)(F)F (stereo not drawn) [F66, (Z)-2-Chloro-N-(2-oxo-2-((1,1,1-trifluoropropan-2-yl)amino)ethyl)-4-(1,4,4,4-tetrafluoro-3-(3,4,5-trichlorophenyl)but-1-en-1-yl)benzamide] | 50 to 100 | 50 to 100 | 
C[C@@H](NC(=O)c1ccc(/C(F)=C/C(c2cc(Cl)c(Cl)c(Cl)c2)C(F)(F)F)cc1Br)C(=O)NCC(F)F (stereo partly drawn) [F31, 2-Bromo-N—((R)-1-((2,2-difluoroethyl)amino)-1-oxopropan-2-yl)-4-((Z)-1,4,4,4-tetrafluoro-3-(3,4,5-trichlorophenyl)but-1-en-1-yl)benzamide] | 50 to 100 | 50 to 100 | 
O=C(N[C@@H]1CON(CC(F)(F)F)C1=O)c1ccc(/C(F)=C/C(c2cc(Cl)cc(CC(F)(F)F)c2)C(F)(F)F)cc1C(F)(F)F (stereo partly drawn) [F178, 4-((Z)-3-(3-Chloro-5-(2,2,2-trifluoroethyl)phenyl)-1,4,4,4-tetrafluorobut-1-en-1-yl)-N—((R)-3-oxo-2-(2,2,2-trifluoroethyl)isoxazolidin-4-yl)-2-(trifluoromethyl)benzamide] | 50 to 100 | 50 to 100 | 
CN(CC(F)(F)F)C(=O)CNC(=O)c1ccc(/C(F)=C/C(c2cc(Cl)c(Cl)c(Cl)c2)C(F)(F)F)cc1C(F)(F)F (stereo not drawn) [F51, (Z)—N-(2-(Methyl(2,2,2-trifluoroethyl)amino)-2-oxoethyl)-4-(1,4,4,4-tetrafluoro-3-(3,4,5-trichlorophenyl)but-1-en-1-yl)-2-(trifluoromethyl)benzamide] | 50 to 100 | 50 to 100 | 
C[C@@H](NC(=O)c1ccc(/C(F)=C/C(c2cc(Cl)c(Cl)c(Cl)c2)C(F)(F)F)cc1C(F)(F)F)C(=O)NCC(F)(F)F (stereo partly drawn) [F2, N—((R)-1-Oxo-1-((2,2,2-trifluoroethyl)amino)propan-2-yl)-4-((Z)-1,4,4,4-tetrafluoro-3-(3,4,5-trichlorophenyl)but-1-en-1-yl)-2-(trifluoromethyl)benzamide] | 50 to 100 | 50 to 100 | mortality at 0.05 µg/cm2 ([1]; 168 h, 0.05 μg/cm^2 on artificial diet, second instar larvae, five to seven days, read-out: BAW Percent control (or mortality)): 100%; mortality at 0.5 µg/cm2 ([1]; 168 h, 0.5 μg/cm^2 on artificial diet, second instar larvae, five to seven days, read-out: BAW Percent control (or mortality)): 100%; mortality at 5 µg/cm2 ([1]; 168 h, 5 μg/cm^2 on artificial diet, second instar larvae, five to seven days, read-out: BAW Percent control (or mortality)): 100%; mortality at 0.05 µg/cm2 ([2]; 168 h, 0.05 μg/cm^2 on artificial diet, second instar larvae, five to seven days, read-out: CL Percent control (or mortality)): 100%; mortality at 0.5 µg/cm2 ([2]; 168 h, 0.5 μg/cm^2 on artificial diet, second instar larvae, five to seven days, read-out: CL Percent control (or mortality)): 100%; mortality at 5 µg/cm2 ([2]; 168 h, 5 μg/cm^2 on artificial diet, second instar larvae, five to seven days, read-out: CL Percent control (or mortality)): 100%
C[C@@H](NC(=O)c1ccc(/C(F)=C/C(c2cc(Cl)c(Cl)c(Cl)c2)C(F)(F)F)cc1C(F)(F)F)C(=S)NCC(F)(F)F (stereo partly drawn) [PF96, 4-((2)-1,4,4,4-Tetrafluoro-3-(3,4,5-trichlorophenyl)but-1-en-1-yl)-N—((R)-1-thioxo-1-((2,2,2-trifluoroethyl)amino)propan-2-yl)-2-(trifluoromethyl)benzamide] | 50 to 100 | 50 to 100 | 
C[C@@H](NC(=O)c1ccc(/C(F)=C/C(c2cc(Cl)c(Cl)c(Cl)c2)C(C)(F)F)cc1C(F)(F)F)C(=O)NCC(F)(F)F (stereo partly drawn) [F29, N—((R)-1-Oxo-1-((2,2,2-trifluoroethyl)amino)propan-2-yl)-4-((Z)-1,4,4-trifluoro-3-(3,4,5-trichlorophenyl)pent-1-en-1-yl)-2-(trifluoromethyl)benzamide] | 50 to 100 | 50 to 100 | 
C[C@@H](NC(=O)c1ccc(/C(F)=C/C(c2cc(Cl)cc(OC(F)(F)F)c2)C(F)(F)F)cc1C(F)(F)F)C(=O)NCC(F)(F)F (stereo partly drawn) [F181, 4-((Z)-3-(3-Chloro-5-(trifluoromethoxy)phenyl)-1,4,4,4-tetrafluorobut-1-en-1-yl)-N—((R)-1-oxo-1-((2,2,2-trifluoroethyl)amino)propan-2-yl)-2-(trifluoromethyl)benzamide] | 50 to 100 | 50 to 100 | 
C=C(C)c1c(Cl)cc(C(/C=C(\F)c2ccc(C(=O)N[C@H](C)C(=O)NCC(F)(F)F)c(C(F)(F)F)c2)C(F)(F)F)cc1Cl (stereo partly drawn) [F148, 4-((Z)-3-(3,5-Dichloro-4-(prop-1-en-2-yl)phenyl)-1,4,4,4-tetrafluorobut-1-en-1-yl)-N—((R)-1-oxo-1-((2,2,2-trifluoroethyl)amino)propan-2-yl)-2-(trifluoromethyl)benzamide] | 50 to 100 | 50 to 100 | 
Cc1cc(C(/C=C(\F)c2ccc(C(=O)N[C@H](C)C(=O)NCC(F)(F)F)c(C(F)(F)F)c2)C(F)(F)F)ccc1Cl (stereo partly drawn) [PF48] | 50 to 100 | 50 to 100 | 
C[C@@H](NC(=O)c1ccc(/C(F)=C/C(c2cc(Cl)cc(C(F)(F)F)c2)C(F)(F)F)cc1C(F)(F)F)C(=O)N(C)CC(F)(F)F (stereo partly drawn) [PF43, 4-((Z)-3-(3-Chloro-5-(trifluoromethyl)phenyl)-1,4,4,4-tetrafluorobut-1-en-1-yl)-N—((R)-1-(methyl(2,2,2-trifluoroethyl)amino)-1-oxopropan-2-yl)-2-(trifluoromethyl)benzamide] | 50 to 100 | 50 to 100 | 
CCCCNC(=O)[C@@H](C)NC(=O)c1ccc(/C(F)=C/C(c2cc(Cl)c(Cl)c(Cl)c2)C(F)(F)F)cc1C(F)(F)F (stereo partly drawn) [F16, N—((R)-1-(Butylamino)-1-oxopropan-2-yl)-4-((Z)-1,4,4,4-tetrafluoro-3-(3,4,5-trichlorophenyl)but-1-en-1-yl)-2-(trifluoromethyl)benzamide] | 50 to 100 | 50 to 100 | 
CC(NC(=O)CNC(=O)c1ccc(/C(F)=C/C(c2cc(Cl)c(Cl)c(Cl)c2)C(F)(F)F)cc1C(F)(F)F)C(F)(F)F (stereo not drawn) [F65, (Z)—N-(2-Oxo-2-((1,1,1-trifluoropropan-2-yl)amino)ethyl)-4-(1,4,4,4-tetrafluoro-3-(3,4,5-trichlorophenyl)but-1-en-1-yl)-2-(trifluoromethyl)benzamide] | 50 to 100 | 50 to 100 | 
Cc1cc(/C(F)=C/C(c2cc(Cl)c(Cl)c(Cl)c2)C(F)(F)F)ccc1C(=O)NC1(C(=O)NCCC2CC2)CC1 (stereo not drawn) [F10, (Z)—N-(1-((2-Cyclopropylethyl)carbamoyl)cyclopropyl)-2-methyl-4-(1,4,4,4-tetrafluoro-3-(3,4,5-trichlorophenyl)but-1-en-1-yl)benzamide] | 50 to 100 | 50 to 100 | 
